Key:
Type in all cases: in vivo
[1] = tested on: redroot pigweed (Amaranthus retroflexus, AMARE); assay: Pre-emerge test, greenhouse herbicide activity screening; details: for Pre-emerge herbicidal activity, phytotoxicity rating AMARE: rating scale 0-100, 14 days after application; for phytotoxicity rating AMARE: pre-emerge, 14 days after application, rating scale 0-100
Method in brief: (§1)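 Rating: 0–100 visual injury, 14 DAA. Application: acetone, 187 l/ha, 15–1000 g ai/ha, flat-fan track sprayer with nozzle 40–45 cm above soil or canopy. Post-emerge runs used 0.25% v/v surfactant on 2–3 leaf plants.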

[2] = tested on: barnyardgrass (Echinochloa crus-galli, ECHCG); assay: as above; details: for Pre-emerge herbicidal activity, phytotoxicity rating ECHCG: rating scale 0-100, 14 days after application; for phytotoxicity rating ECHCG: pre-emerge, 14 days after application, rating scale 0-100
Method in brief: as §1

[3] = tested on: green foxtail (Setaria viridis, SETVI); assay: as above; details: for Pre-emerge herbicidal activity, phytotoxicity rating SETVI: rating scale 0-100, 14 days after application; for phytotoxicity rating SETVI: pre-emerge, 14 days after application, rating scale 0-100
Method in brief: as §1

[4] = tested on: ivyleaf morningglory (Ipomoea hederacea, IPOHE); assay: as above; details: for Pre-emerge herbicidal activity, phytotoxicity rating IPOHE: rating scale 0-100, 14 days after application; for phytotoxicity rating IPOHE: pre-emerge, 14 days after application, rating scale 0-100
Method in brief: as §1

[5] = tested on: johnsongrass (Sorghum halepense, SORHA); assay: as above; details: for Pre-emerge herbicidal activity, phytotoxicity rating SORHA: rating scale 0-100, 14 days after application; for phytotoxicity rating SORHA: pre-emerge, 14 days after application, rating scale 0-100
Method in brief: as §1

[6] = tested on: lambsquarters (Chenopodium album, CHEAL); assay: as above; details: for Pre-emerge herbicidal activity, phytotoxicity rating CHEAL: rating scale 0-100, 14 days after application; for phytotoxicity rating CHEAL: pre-emerge, 14 days after application, rating scale 0-100
Method in brief: as §1

[7] = tested on: large crabgrass (Digitaria sanguinalis, DIGSA); assay: as above; details: for Pre-emerge herbicidal activity, phytotoxicity rating DIGSA: rating scale 0-100, 14 days after application; for phytotoxicity rating DIGSA: pre-emerge, 14 days after application, rating scale 0-100
Method in brief: as §1

[8] = tested on: sicklepod (Cassia obtusifolia, CASOB); assay: as above; details: for Pre-emerge herbicidal activity, phytotoxicity rating CASOB: rating scale 0-100, 14 days after application; for phytotoxicity rating CASOB: pre-emerge, 14 days after application, rating scale 0-100
Method in brief: as §1

[9] = tested on: velvetleaf (Abutilon theophrasti, ABUTH); assay: as above; details: for Pre-emerge herbicidal activity, phytotoxicity rating ABUTH: rating scale 0-100, 14 days after application; for phytotoxicity rating ABUTH: pre-emerge, 14 days after application, rating scale 0-100
Method in brief: as §1

[10] = tested on: field corn (Zea mays L., var. Dekalb 535, CORN); assay: Pre-emerge test, crop safety; details: for Pre-emerge phytotoxicity rating, crop damage CORN: rating scale 0-100, 14 days after application; for phytotoxicity rating CORN: pre-emerge, 14 days after application, rating scale 0-100
Method in brief: (§2)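 Sandy loam pots; pre-emerge: sown 1 d pre-spray, surface-watered after, then bottom-watered. Post-emerge: sown 8–21 d before, 2–3 leaf stage, + 0.25% v/v NIS, bottom-watered. Acetone, 187 l/ha track spray, 15–1000 g ai/ha. 0–100 injury score, day 14.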

[11] = tested on: upland rice (Oryza sp., var. Tebonnet, RICE); assay: Pre-emerge test, crop safety; details: for Pre-emerge phytotoxicity rating, crop damage RICE: rating scale 0-100, 14 days after application; for phytotoxicity rating RICE: pre-emerge, 14 days after application, rating scale 0-100
Method in brief: as §2

[12] = tested on: barnyardgrass (Echinochloa crus-galli, ECHCG); assay: Post-emerge test, greenhouse herbicide activity screening; details: rating scale 0-100 (0 no damage, 100 complete death), 14 days after application
Method in brief: (§3)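 Herbicidal damage is scored 0 (none) to 100 (complete plant death) two weeks after a simulated field spray. Rates span 15–1000 g ai/ha, delivered in acetone at 187 l/ha. For post-emergence treatments, plants have 2–3 leaves and the spray carries 0.25% v/v non-ionic surfactant.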

[13] = tested on: green foxtail (Setaria viridis, SETVI); assay: as above; details: rating scale 0-100 (0 no damage, 100 complete death), 14 days after application
Method in brief: as §3

[14] = tested on: ivyleaf morningglory (Ipomoea hederacea, IPOHE); assay: as above; details: rating scale 0-100 (0 no damage, 100 complete death), 14 days after application
Method in brief: as §3

[15] = tested on: johnsongrass (Sorghum halepense, SORHA); assay: as above; details: rating scale 0-100 (0 no damage, 100 complete death), 14 days after application
Method in brief: as §3

[16] = tested on: lambsquarters (Chenopodium album, CHEAL); assay: as above; details: rating scale 0-100 (0 no damage, 100 complete death), 14 days after application
Method in brief: as §3

[17] = tested on: large crabgrass (Digitaria sanguinalis, DIGSA); assay: as above; details: rating scale 0-100 (0 no damage, 100 complete death), 14 days after application
Method in brief: as §3

[18] = tested on: redroot pigweed (Amaranthus retroflexus, AMARE); assay: as above; details: rating scale 0-100 (0 no damage, 100 complete death), 14 days after application
Method in brief: as §3

[19] = tested on: sicklepod (Cassia obtusifolia, CASOB); assay: as above; details: rating scale 0-100 (0 no damage, 100 complete death), 14 days after application
Method in brief: as §3

[20] = tested on: velvetleaf (Abutilon theophrasti, ABUTH); assay: as above; details: rating scale 0-100 (0 no damage, 100 complete death), 14 days after application
Method in brief: as §3

[21] = tested on: field corn (Zea mays L., var. Dekalb 535, CORN); assay: Post-emerge test, crop safety; details: rating scale 0-100 (0 no damage, 100 complete death), 14 days after application
Method in brief: (§4)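 Plants grown in 10 cm pots of sandy loam mix received acetone-dissolved compounds through a moving flat-fan nozzle. Doses ranged from 15 to 1000 g ai/ha. Pre-emerge pots were seeded one day earlier, post-emerge pots 8–21 days earlier. Fourteen days on, each pot was graded 0–100 for damage.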

[22] = tested on: upland rice (Oryza sp., var. Tebonnet, RICE); assay: Post-emerge test, crop safety; details: rating scale 0-100 (0 no damage, 100 complete death), 14 days after application
Method in brief: as §4

## COc1c(Cl)cc(F)c(-n2c(=O)cc(C(F)(F)F)n(C)c2=O)c1CC(C)(Cl)C(=O)OCc1ccccc1 (stereo not shown) [14-41]
[1]; 63 g ai/ha
  Pre-emerge herbicidal activity, phytotoxicity rating AMARE: 100
[1]; 250 g ai/ha
  Pre-emerge herbicidal activity, phytotoxicity rating AMARE: 100
[2]; 63 g ai/ha
  Pre-emerge herbicidal activity, phytotoxicity rating ECHCG: 0
[2]; 250 g ai/ha
  Pre-emerge herbicidal activity, phytotoxicity rating ECHCG: 80
[3]; 63 g ai/ha
  Pre-emerge herbicidal activity, phytotoxicity rating SETVI: 30
[3]; 250 g ai/ha
  Pre-emerge herbicidal activity, phytotoxicity rating SETVI: 100
[4]; 63 g ai/ha
  Pre-emerge herbicidal activity, phytotoxicity rating IPOHE: 0
[4]; 250 g ai/ha
  Pre-emerge herbicidal activity, phytotoxicity rating IPOHE: 40
[5]; 63 g ai/ha
  Pre-emerge herbicidal activity, phytotoxicity rating SORHA: 0
[5]; 250 g ai/ha
  Pre-emerge herbicidal activity, phytotoxicity rating SORHA: 0
[6]; 63 g ai/ha
  Pre-emerge herbicidal activity, phytotoxicity rating CHEAL: 100
[6]; 250 g ai/ha
  Pre-emerge herbicidal activity, phytotoxicity rating CHEAL: 100
[7]; 63 g ai/ha
  Pre-emerge herbicidal activity, phytotoxicity rating DIGSA: 50
[7]; 250 g ai/ha
  Pre-emerge herbicidal activity, phytotoxicity rating DIGSA: 100
[8]; 63 g ai/ha
  Pre-emerge herbicidal activity, phytotoxicity rating CASOB: 0
[8]; 250 g ai/ha
  Pre-emerge herbicidal activity, phytotoxicity rating CASOB: 0
[9]; 63 g ai/ha
  Pre-emerge herbicidal activity, phytotoxicity rating ABUTH: 90
[9]; 250 g ai/ha
  Pre-emerge herbicidal activity, phytotoxicity rating ABUTH: 100
[10]; 63 g ai/ha
  Pre-emerge phytotoxicity rating, crop damage CORN: 0
[10]; 250 g ai/ha
  Pre-emerge phytotoxicity rating, crop damage CORN: 0
[11]; 63 g ai/ha
  Pre-emerge phytotoxicity rating, crop damage RICE: 0
[11]; 250 g ai/ha
  Pre-emerge phytotoxicity rating, crop damage RICE: 50
[12]; Rate 63 g ai/ha
  Post-emerge Herbicidal Activity, phytotoxicity rating ECHCG: 100
[12]; Rate 250 g ai/ha
  Post-emerge Herbicidal Activity, phytotoxicity rating ECHCG: 100
[13]; Rate 63 g ai/ha
  Post-emerge Herbicidal Activity, phytotoxicity rating SETVI: 90
[13]; Rate 250 g ai/ha
  Post-emerge Herbicidal Activity, phytotoxicity rating SETVI: 100
[14]; Rate 63 g ai/ha
  Post-emerge Herbicidal Activity, phytotoxicity rating IPOHE: 30
[14]; Rate 250 g ai/ha
  Post-emerge Herbicidal Activity, phytotoxicity rating IPOHE: 50
[15]; Rate 63 g ai/ha
  Post-emerge Herbicidal Activity, phytotoxicity rating SORHA: 40
[15]; Rate 250 g ai/ha
  Post-emerge Herbicidal Activity, phytotoxicity rating SORHA: 70
[16]; Rate 63 g ai/ha
  Post-emerge Herbicidal Activity, phytotoxicity rating CHEAL: 100
[16]; Rate 250 g ai/ha
  Post-emerge Herbicidal Activity, phytotoxicity rating CHEAL: 100
[17]; Rate 63 g ai/ha
  Post-emerge Herbicidal Activity, phytotoxicity rating DIGSA: 100
[17]; Rate 250 g ai/ha
  Post-emerge Herbicidal Activity, phytotoxicity rating DIGSA: 100
[18]; Rate 63 g ai/ha
  Post-emerge Herbicidal Activity, phytotoxicity rating AMARE: 100
[18]; Rate 250 g ai/ha
  Post-emerge Herbicidal Activity, phytotoxicity rating AMARE: 100
[19]; Rate 63 g ai/ha
  Post-emerge Herbicidal Activity, phytotoxicity rating CASOB: 0
[19]; Rate 250 g ai/ha
  Post-emerge Herbicidal Activity, phytotoxicity rating CASOB: 0
[20]; Rate 63 g ai/ha
  Post-emerge Herbicidal Activity, phytotoxicity rating ABUTH: 100
[20]; Rate 250 g ai/ha
  Post-emerge Herbicidal Activity, phytotoxicity rating ABUTH: 100
[21]; Rate 63 g ai/ha
  Post-emerge phytotoxicity rating CORN (crop damage): 100
[21]; Rate 250 g ai/ha
  Post-emerge phytotoxicity rating CORN (crop damage): 100
[22]; Rate 63 g ai/ha
  Post-emerge phytotoxicity rating RICE (crop damage): 20
[22]; Rate 250 g ai/ha
  Post-emerge phytotoxicity rating RICE (crop damage): 95

## CCOC(=O)C(Cl)(CC(=O)OC)Cc1c(OC)c(Cl)cc(F)c1-n1c(=O)cc(C(F)(F)F)n(C)c1=O (stereo not shown) [14-50]
[1]; 63 g ai/ha
  phytotoxicity rating AMARE: 100
[1]; 250 g ai/ha
  phytotoxicity rating AMARE: 100
[2]; 63 g ai/ha
  phytotoxicity rating ECHCG: 0
[2]; 250 g ai/ha
  phytotoxicity rating ECHCG: 30
[3]; 63 g ai/ha
  phytotoxicity rating SETVI: 0
[3]; 250 g ai/ha
  phytotoxicity rating SETVI: 50
[4]; 63 g ai/ha
  phytotoxicity rating IPOHE: 10
[4]; 250 g ai/ha
  phytotoxicity rating IPOHE: 70
[5]; 63 g ai/ha
  phytotoxicity rating SORHA: 50
[5]; 250 g ai/ha
  phytotoxicity rating SORHA: 95
[6]; 63 g ai/ha
  phytotoxicity rating CHEAL: 100
[6]; 250 g ai/ha
  phytotoxicity rating CHEAL: 100
[7]; 63 g ai/ha
  phytotoxicity rating DIGSA: 0
[7]; 250 g ai/ha
  phytotoxicity rating DIGSA: 40
[8]; 63 g ai/ha
  phytotoxicity rating CASOB: 0
[8]; 250 g ai/ha
  phytotoxicity rating CASOB: 30
[9]; 63 g ai/ha
  phytotoxicity rating ABUTH: 0
[9]; 250 g ai/ha
  phytotoxicity rating ABUTH: 50
[10]; 63 g ai/ha
  phytotoxicity rating CORN: 10
[10]; 250 g ai/ha
  phytotoxicity rating CORN: 90
[11]; 63 g ai/ha
  phytotoxicity rating RICE: 0
[11]; 250 g ai/ha
  phytotoxicity rating RICE: 0
[12]; Rate 63 g ai/ha
  Post-emerge Herbicidal Activity, phytotoxicity rating ECHCG: 0
[12]; Rate 250 g ai/ha
  Post-emerge Herbicidal Activity, phytotoxicity rating ECHCG: 0
[13]; Rate 63 g ai/ha
  Post-emerge Herbicidal Activity, phytotoxicity rating SETVI: 0
[13]; Rate 250 g ai/ha
  Post-emerge Herbicidal Activity, phytotoxicity rating SETVI: 0
[14]; Rate 63 g ai/ha
  Post-emerge Herbicidal Activity, phytotoxicity rating IPOHE: 0
[14]; Rate 250 g ai/ha
  Post-emerge Herbicidal Activity, phytotoxicity rating IPOHE: 0
[15]; Rate 63 g ai/ha
  Post-emerge Herbicidal Activity, phytotoxicity rating SORHA: 0
[15]; Rate 250 g ai/ha
  Post-emerge Herbicidal Activity, phytotoxicity rating SORHA: 0
[16]; Rate 63 g ai/ha
  Post-emerge Herbicidal Activity, phytotoxicity rating CHEAL: 50
[16]; Rate 250 g ai/ha
  Post-emerge Herbicidal Activity, phytotoxicity rating CHEAL: 100
[17]; Rate 63 g ai/ha
  Post-emerge Herbicidal Activity, phytotoxicity rating DIGSA: 0
[17]; Rate 250 g ai/ha
  Post-emerge Herbicidal Activity, phytotoxicity rating DIGSA: 50
[18]; Rate 63 g ai/ha
  Post-emerge Herbicidal Activity, phytotoxicity rating AMARE: 100
[18]; Rate 250 g ai/ha
  Post-emerge Herbicidal Activity, phytotoxicity rating AMARE: 100
[19]; Rate 63 g ai/ha
  Post-emerge Herbicidal Activity, phytotoxicity rating CASOB: 90
[19]; Rate 250 g ai/ha
  Post-emerge Herbicidal Activity, phytotoxicity rating CASOB: 100
[20]; Rate 63 g ai/ha
  Post-emerge Herbicidal Activity, phytotoxicity rating ABUTH: 30
[20]; Rate 250 g ai/ha
  Post-emerge Herbicidal Activity, phytotoxicity rating ABUTH: 50
[21]; Rate 63 g ai/ha
  Post-emerge phytotoxicity rating CORN (crop damage): 10
[21]; Rate 250 g ai/ha
  Post-emerge phytotoxicity rating CORN (crop damage): 30
[22]; Rate 63 g ai/ha
  Post-emerge phytotoxicity rating RICE (crop damage): 30
[22]; Rate 250 g ai/ha
  Post-emerge phytotoxicity rating RICE (crop damage): 50

Source: patent US6355799B1, “Substituted benzene compounds, process for their preparation, and herbicidal and defoliant compositions containing them” (ISK Americas Incorporated, priority 1997, dated 2002)
